The structures appear in SMILES notation. Read-outs that look alike come from different tables or passages of the source.

One assay concerns MIA PaCa-2 cells. Kind of assay: Growth inhibition activity on KRAS-G12C mutant cell line (CellTiter-Glo 3D). The class given is cell-based, human. The note with it: MIA PaCa-2, 3-day culture with compound. An outline of the steps: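 MIA PaCa-2 cells in RPMI1640 with 10% FBS, U-bottom wells, cultured 1 day before compound (0.2% DMSO final), then 3 days at 37 °C, 5% CO2. Viability by CellTiter-Glo 3D luminescence; growth inhibition versus untreated wells gives IC50 (nM).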
(In general: ATP-based viability assays read luminescence as a measure of living cells.)

Assay [1] deals with T1, interaction between GMPPNP-bound recombinant K-Ras4B G12C mutant protein and cRAF RAS-binding domain (cRAF-RBD) (Homo sapiens, UniProt P01116, G12C).
T1 construct: His-tag (N)
As to the kind of experiment: Inhibitory activity on interaction between KRAS G12C and cRAF (Alpha technology). An outline of the steps:
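His-tagged K-Ras4B G12C (aa 1-169), GMPPNP-loaded, preincubated with compound 1 h at 25° C in pH 7.5 Tris buffer with MgCl2, TCEP, Tween 20. cRAF-RBD (aa 50-132) and Alpha reagents then added for 1.5 h; Alpha signal normalised to DMSO (0%) and GDP-bound KRAS (100%); IC50 from dose titration.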

Where [2] appears, read: Homo sapiens, MIA PaCa-2, 72 h, Table 3.
[3] abbreviates: GMPPNP-bound KRAS G12C incubated with compound 25° C. 1 hour, Table 2, read-out: IC50.
Setting [4] is: Homo sapiens, MIA PaCa-2, 72 h, Table 3-1.
Setting [5] is: GMPPNP-bound KRAS G12C incubated with compound 25° C. 1 hour, Table 2-1, read-out: IC50.
Where [6] appears, read: IC50, GMPPNP-bound KRAS G12C incubated with compound 25° C. 1 hour, Table 2.

T1 sequence (P01116 with tags, fused parts or gaps isoform P01116-2 G12C): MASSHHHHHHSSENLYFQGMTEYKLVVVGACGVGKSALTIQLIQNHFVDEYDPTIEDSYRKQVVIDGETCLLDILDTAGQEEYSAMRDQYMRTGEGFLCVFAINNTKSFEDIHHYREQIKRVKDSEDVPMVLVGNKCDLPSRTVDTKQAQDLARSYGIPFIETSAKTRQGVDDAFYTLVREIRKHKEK

As to `CO[C@H]1CC[C@H](NC/C=C/C(=O)Nc2c(F)cc(C(=O)c3cc4c5c(cccn35)-c3c(C(F)(F)F)cc5c(nc(C)n5C)c3OC(C)C4)cc2F)CC1` (stereo partly drawn) [Example 42, (E)-N-(2,6-difluoro-4-(9,10,13-trimethyl-7-(trifluoromethyl)-13,14-dihydro-9H-imidazo[4″,5″:5′,6′]benzo[1′,2′:2,3]oxocino[4,5,6-hi]indolizine-2-carbonyl)phenyl)-4-(((1r,4r)-4-methoxycyclohexyl)amino)but-2-enamide], the half-maximal inhibitory concentration (IC50) in the assay with MIA PaCa-2 cells (setting [2]) was 9 nM; in assay [1] (setting [3]) it was 18 nM.

For `Cc1nc2c3c(c(C(F)(F)F)cc2n1C)-c1cccn2c(C(=O)c4ccc(NC(=O)/C=C/CNC5(C)COC5)cn4)cc(c12)CCO3` [Example 60, (E)-N-(6-(9,10-dimethyl-7-(trifluoromethyl)-13,14-dihydro-9H-imidazo-[4″,5″:5′,6′]benzo[1′,2′: 2,3]oxocino[4,5,6-hi]-indolizine-2-carbonyl)-pyridin-3-yl)-4-((3-meth-yloxetan-3-yl)amino)but-2-enamide], the concentration for half-maximal inhibition (IC50) was 32.1 nM in the assay with MIA PaCa-2 cells (setting [4]) and 73.2 nM in assay [1] (setting [5]).

`COC[C@H](CO)NC/C=C/C(=O)Nc1c(F)cc(C(=O)c2cc3c4c(cccn24)-c2c(C(F)(F)F)cc4c(ncn4C)c2N(C)CC3)cc1F` [Example 128, (S,E)-N-(4-(9,12-dimeth-yl-7-(trifluoromethyl)-9,12,13,14-tetrahydro-imidazo[4″,5″:5′,6′]benzo-[1′,2′:2,3]azocino[4,5,6-hi]indolizine-2-carbonyl)-2,6-difluorophenyl)-4-((1-hydroxy-3-methoxy-propan-2-yl)amino)but-2-enamide]: the IC50 in the assay with MIA PaCa-2 cells (setting [4]) was found to be 11.8 nM; in assay [1] (setting [5]), 18.8 nM.

Consider `Cn1cnc2c3c(c(C(F)(F)F)cc21)-c1cccn2c(C(=O)c4cc(F)c(NC(=O)/C=C/CN5CC[C@H](O)C5)c(F)c4)cc(c12)CCO3` [Example 150, (S,E)-N-(2,6-difluoro-4-(9-methyl-7-(trifluoro-methyl)-13,14-dihydro-9H-imidazo[4″,5″:5′,6′]-benzo[1′,2′:2,3]oxocino-[4,5,6-hi]indolizine-2-carbonyl)phenyl)-4-(3-hydroxypyrrolidin-1-yl)-but-2-enamide], for which the 50% inhibitory concentration (IC50) in the assay with MIA PaCa-2 cells (setting [4]) worked out at 31.2 nM; in assay [1] (setting [5]), 17.1 nM.

Take `CO[C@H]1CC[C@H](NC/C=C/C(=O)Nc2c(F)cc(C(=O)c3c(C)n4c5c(cccc35)-c3c(C(F)(F)F)cc5c(nc(C)n5C)c3OCC4)cc2F)CC1` [Example 25, (E)-N-(2,6-difluoro-4-(1,8,9-trimethyl-6-(trifluoromethyl)-12, 13-dihydro-8H-imidazo[4″,5″:3′,4′]benzo[1′,2′:7,8][1,4]oxazocino[6,5,4-hi]indole-2-carbonyl)phenyl)-4-(((1,4r)-4-methoxycyclohexyl)amino)but-2-enamide]: the IC50 in the assay on MIA PaCa-2 cells (setting [2]) came out at 24 nM; in assay [1] (setting [6]) it was 39 nM.

With `CO[C@H]1CC[C@H](NC/C=C/C(=O)Nc2c(F)cc(C(=O)c3cc4c5c(cccn35)-c3c(C(F)(F)F)cc5c(nc(C)n5C)c3OCC4)cc2F)CC1` (single isomer, unassigned) [Example 30-2, (E)-N-(4-(9,10-dimethyl-7-(trifluoromethyl)-13,14-dihydro-9H-imidazo[4″,5″:5′,6′]benzo[1′,2′:2,3]oxocino[4,5,6-hi]indolizine-2-carbonyl)-2,6-difluorophenyl)-4-(((1r,4r)-4-methoxycyclohexyl)amino)but-2-enamide], the IC50 in the assay with MIA PaCa-2 cells (Table 3) came to 1600 nM; in assay [1] (setting [3]), 6000 nM.

For `CO[C@H]1CC[C@H](NC/C=C/C(=O)Nc2c(F)cc(C(=O)c3cn4c5c(cccc35)-c3c(Cl)cc(N5CCCC5=O)cc3OCC4)cc2F)CC1` [Example 8, (E)-N-(4-(10-chloro-8-(2-oxopyrrolidin-1-yl)-4,5-dihydrobenzo[7,8][1,4]oxazocino[6,5,4-hi]indole-1-carbonyl)-2,6-difluorophenyl)-4-(((1r,4t)-4-methoxycyclohexyl)amino)but-2-enamide], the IC50 came out at 160 nM in the assay on MIA PaCa-2 cells (setting [2]) and 150 nM in assay [1] (setting [6]).

Regarding `COC[C@@H]1CCN1C/C=C/C(=O)Nc1c(F)cc(C(=O)c2cc3c4c(cccn24)-c2c(C(F)(F)F)cc4c(ncn4C)c2OCC3)cc1F` [Example 169, (S,E)-N-(2,6-difluoro-4-(9-methyl-7-(trifluoro-methyl)-13,14-dihydro-9H-imidazo[4″,5″:5′,6′]-benzo[1′,2′:2,3]oxocino-[4,5,6-hi]indolizine-2-carbonyl)phenyl)-4-(2-(methoxymethyl)azetidin-1-yl)but-2-enamide], the results for the IC50 (with MIA PaCa-2 cells (setting [4]); in assay [1] (setting [5])) were 15 nM and 59.6 nM, respectively.

Turning to `Cn1cnc2c3c(c(C(F)(F)F)cc21)-c1cccn2c(C(=O)c4cc(F)c(NC(=O)/C=C/CN[C@H]5[C@@H]6COC[C@@H]65)c(F)c4)cc(c12)CCO3` [Example 147, (E)-4-(((1R,5S,6r)-3-oxa-bicyclo[3.1.0]hexan-6-yl)amino)-N-(2,6-difluoro-4-(9-methyl-7-(trifluoro-methyl)-13,14-dihydro-9H-imidazo[4″,5″:5′,6′]-benzo[1′,2′:2,3]oxocino-[4,5,6-hi]indolizine-2-carbonyl)phenyl)but-2-enamide], the IC50 in the assay on MIA PaCa-2 cells (setting [4]) was 15.3 nM; in assay [1] (setting [5]) it was 7.49 nM.

In the case of `CO[C@H]1CC[C@H](NC/C=C/C(=O)Nc2c(F)cc(C(=O)c3cn4c5c(cccc35)-c3c(Cl)cccc3OCC4)cc2F)CC1` (single isomer, unassigned) [Example 1-1], the IC50 in the assay with MIA PaCa-2 cells (Table 3) is 7700 nM; in assay [1] (setting [6]) it was above 6700 nM.

Take `COCc1nc2c3c(c(OC)cc2n1C)-c1cccn2c(C(=O)c4cc(F)c(NC(=O)/C=C/CNC5(C)COC5)c(F)c4)cc(c12)CCN3C` (single isomer, unassigned) [Example 170, (E)-N-(2,6-difluoro-4-(7-methoxy-10-(methoxy-methyl)-9,12-dimethyl-9,12,13,14-tetrahydro-imidazo[4″,5″:5′,6′]benzo-[1′,2′:2,3]azocino[4,5,6-hi]indolizine-2-carbonyl)-phenyl)-4-((3-methyl-oxetan-3-yl)amino)but-2-enamide]: the figures for the 50% inhibitory concentration (IC50) (in the assay with MIA PaCa-2 cells (setting [4]); in assay [1] (setting [5])) were 47.7 nM and 14.1 nM, respectively.

With `Cc1cc2c(C)n(C)nc2c2c1-c1cccn3c(C(=O)c4cc(F)c(NC(=O)/C=C/CNC5(C)COC5)c(F)c4)cc(c13)CCN2C` (single isomer, unassigned) [Example 145, (E)-N-(2,6-difluoro-4-(7,9,10,12-tetramethyl-10,12,13,14-tetrahydro-indolizino[8′,1′:4,5,6]-azocino[3,2-g]indazole-2-carbonyl)phenyl)4-((3-methyloxetan-3-yl)-amino)-but-2-enamide], the IC50 in the assay with MIA PaCa-2 cells (setting [4]) stood at 162 nM; in assay [1] (setting [5]), 72.3 nM.

Regarding `Cn1cnc2c3c(c(C(F)(F)F)cc21)-c1cccn2c(C(=O)c4cc(F)c(NC(=O)/C=C/CN5C[C@@H]6COC[C@H]6C5)c(F)c4)cc(c12)CCO3` (racemic) [Example 248], the IC50 is 21.8 nM with MIA PaCa-2 cells (setting [4]) and 18 nM in assay [1] (setting [5]).

As to `CN1CCc2cc(C(=O)c3cc(F)c(NC(=O)/C=C/CNCC(C)(C)CO)c(F)c3)n3cccc(c23)-c2c(C(F)(F)F)cc3c(ncn3C)c21` [Example 113, (E)-N-(4-(9,12-dimethyl-7-(trifluoromethyl)-9,12,13,14-tetrahydro-imidazo[4″,5″:5′,6′]benzo-[1′,2′:2,3]azocino[4,5,6-hi]indolizine-2-carbonyl)-2,6-difluorophenyl)-4-((3-hydroxy-2,2-dimethyl-propyl)amino)but-2-enamide], the IC50 in the assay on MIA PaCa-2 cells (setting [4]) was determined as 10.6 nM; in assay [1] (setting [5]), 29.6 nM.

`CO[C@H]1CC[C@H](NC/C=C/C(=O)Nc2c(F)cc(C(=O)c3cn4c5c(cccc35)-c3c(Cl)cccc3OCCC4)cc2F)CC1` (single isomer, unassigned) [Example 4-1, (E)-N-(4-(11-chloro-5,6-dihydro-4H-benzo[8,9][1,5]oxazonino[7,6,5-hi]indole-1-carbonyl)-2,6-difluorophenyl)-4-(((1,4r)-4-methoxycyclohexyl)amino)but-2-enamide]: the IC50 with MIA PaCa-2 cells (Table 3) is 3600 nM; in assay [1] (setting [6]) it was above 6700 nM.

In the case of `Cc1nc2c3c(c(C(F)(F)F)cc2n1C)-c1cccn2c(C(=O)c4cc(F)c(NC(=O)/C=C/CNC(C)(C)CF)c(F)c4)cc(c12)CCO3` [Example 56], the figures for the IC50 (in the assay with MIA PaCa-2 cells (setting [4]); in assay [1] (setting [5])) were 12.6 nM and 12.4 nM, respectively.

As for `COCC1(NC/C=C/C(=O)Nc2c(F)cc(C(=O)c3cc4c5c(cccn35)-c3c(C(F)(F)F)cc5c(ncn5C)c3N(C)CC4)cc2F)CCCC1` [Example 127, (E)-N-(4-(9,12-dimethyl-7-(trifluoromethyl)-9,12,13,14-tetrahydro-imidazo[4″,5″:5′,6′]benzo-[1′,2′:2,3]azocino[4,5,6-hi]indolizine-2-carbonyl)-2,6-difluorophenyl)-4-((1-(methoxymethyl)cyclo-pentyl)amino)but-2-en-amide], the IC50 with MIA PaCa-2 cells (setting [4]) stood at 22.5 nM; in assay [1] (setting [5]), 16.8 nM.

On to `CO[C@H]1CC[C@H](NC/C=C/C(=O)Nc2c(F)cc(C(=O)c3cn4c5c(cccc35)-c3c(C)cc5c(nc(C)n5C)c3OC[C@H](C)C4)cc2F)CC1` (single isomer, unassigned) [Example 23], for which the 50% inhibitory concentration (IC50) amounted to 13 nM with MIA PaCa-2 cells (Table 3) and 19 nM in assay [1] (setting [6]).

In general, IC50 refers to the concentration needed to halve the response being measured.

For the origin of these results see patent US20240262842A1, “SMALL MOLECULE INHIBITORS OF KRAS G12C MUTANT” (Merck Sharp & Dohme LLC, priority 2021, published 2024).
